Source: ChEMBL document CHEMBL1201862, “PubChem BioAssay data set” (2004)
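Each compound was tested at five concentrations against cells in 96-well plates for 48 hours. GI50 = concentration required for 50% inhibition of growth.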 The source made the active and inactive calls. No stated cut-off is given here; in the data, active = GI50 up to about 1.1 µM and inactive = higher.

Key:
Assay in all cases: NCI anticancer screen, dose series, 48 h
CCRF-CEM = tested on: CCRF-CEM
HT-29 = tested on: HT-29
K562 = tested on: K562
MOLT-4 = tested on: MOLT-4
MDA-MB-231 = tested on: MDA-MB-231
COLO 205 = tested on: COLO 205
HOP-92 = tested on: HOP-92
NCI-H226 = tested on: NCI-H226
BT-549 = tested on: BT-549
OVCAR-4 = tested on: OVCAR-4
HCT-116 = tested on: HCT-116
NCI/ADR-RES = tested on: NCI/ADR-RES
SNB-75 = tested on: SNB-75
SR = tested on: SR
UO-31 = tested on: UO-31
RPMI-8226 = tested on: RPMI-8226
OVCAR-3 = tested on: OVCAR-3
SK-MEL-2 = tested on: SK-MEL-2
SNB-19 = tested on: SNB-19
HCT-15 = tested on: HCT-15
PC-3 = tested on: PC-3
CAKI-1 = tested on: CAKI-1
NCI-H522 = tested on: NCI-H522
SF-268 = tested on: SF-268
SF-295 = tested on: SF-295
MCF7 = tested on: MCF7
DU-145 = tested on: DU-145
OVCAR-8 = tested on: OVCAR-8
HL-60 = tested on: HL-60
HCC 2998 = tested on: HCC 2998
NCI-H460 = tested on: NCI-H460
LOX IMVI = tested on: LOX IMVI
786-0 = tested on: 786-0
SF-539 = tested on: SF-539
KM12 = tested on: KM12
T47D = tested on: T47D
NCI-H23 = tested on: NCI-H23
HOP-62 = tested on: HOP-62
SK-OV-3 = tested on: SK-OV-3
IGROV-1 = tested on: IGROV-1
Hs-578T = tested on: Hs-578T
SK-MEL-28 = tested on: SK-MEL-28
UACC-257 = tested on: UACC-257
EKVX = tested on: EKVX
ACHN = tested on: ACHN
MDA-N = tested on: MDA-N
SN12C = tested on: SN12C
RXF 393 = tested on: RXF 393
MDA-MB-435 = tested on: MDA-MB-435
Malme-3M = tested on: Malme-3M
SK-MEL-5 = tested on: SK-MEL-5
M14 = tested on: M14
UACC-62 = tested on: UACC-62
TK-10 = tested on: TK-10
A549 = tested on: A549
U-251 = tested on: U-251
SW-620 = tested on: SW-620
OVCAR-5 = tested on: OVCAR-5
A498 = tested on: A498

## O=C(OCc1ccccc1)C1(N2CN(C3(C(=O)OCc4ccccc4)CCCC3)CN(C3(C(=O)OCc4ccccc4)CCCC3)C2)CCCC1
CCRF-CEM
  GI50: > 10 µM (inactive)
HT-29
  GI50: > 10 µM (inactive)
K562
  GI50: > 10 µM (inactive)
MOLT-4
  GI50: > 10 µM (inactive)
MDA-MB-231
  GI50: > 10 µM (inactive)
COLO 205
  GI50: > 10 µM (inactive)
HOP-92
  GI50: > 10 µM (inactive)
NCI-H226
  GI50: > 10 µM (inactive)
BT-549
  GI50: > 10 µM (inactive)
OVCAR-4
  GI50: > 10 µM (inactive)
HCT-116
  GI50: > 10 µM (inactive)
NCI/ADR-RES
  GI50: > 10 µM (inactive)
SNB-75
  GI50: > 10 µM (inactive)
SR
  GI50: > 10 µM (inactive)
UO-31
  GI50: > 10 µM (inactive)
RPMI-8226
  GI50: > 10 µM (inactive)
OVCAR-3
  GI50: > 10 µM (inactive)
SK-MEL-2
  GI50: > 10 µM (inactive)
SNB-19
  GI50: > 10 µM (inactive)
HCT-15
  GI50: > 10 µM
PC-3
  GI50: > 10 µM (inactive)
CAKI-1
  GI50: > 10 µM (inactive)
NCI-H522
  GI50: > 10 µM (inactive)
SF-268
  GI50: > 10 µM (inactive)
SF-295
  GI50: > 10 µM (inactive)
MCF7
  GI50: > 10 µM (inactive)
DU-145
  GI50: > 10 µM (inactive)
OVCAR-8
  GI50: > 10 µM (inactive)
HL-60
  GI50: > 10 µM (inactive)
HCC 2998
  GI50: > 10 µM (inactive)
NCI-H460
  GI50: > 10 µM (inactive)
LOX IMVI
  GI50: > 10 µM (inactive)
786-0
  GI50: > 10 µM (inactive)
SF-539
  GI50: > 10 µM (inactive)
KM12
  GI50: > 10 µM (inactive)
T47D
  GI50: > 10 µM (inactive)
NCI-H23
  GI50: > 10 µM (inactive)
HOP-62
  GI50: > 10 µM (inactive)
SK-OV-3
  GI50: > 10 µM (inactive)
IGROV-1
  GI50: > 10 µM (inactive)
Hs-578T
  GI50: > 10 µM (inactive)
SK-MEL-28
  GI50: > 10 µM (inactive)
UACC-257
  GI50: > 10 µM (inactive)
EKVX
  GI50: > 10 µM (inactive)
ACHN
  GI50: > 10 µM (inactive)
MDA-N
  GI50: > 10 µM (inactive)
SN12C
  GI50: > 10 µM (inactive)
RXF 393
  GI50: > 10 µM (inactive)
MDA-MB-435
  GI50: > 10 µM (inactive)
Malme-3M
  GI50: > 10 µM (inactive)
SK-MEL-5
  GI50: > 10 µM (inactive)
M14
  GI50: > 10 µM (inactive)
UACC-62
  GI50: > 10 µM (inactive)
TK-10
  GI50: > 10 µM (inactive)
A549
  GI50: > 10 µM (inactive)
U-251
  GI50: > 10 µM (inactive)
SW-620
  GI50: > 10 µM (inactive)
OVCAR-5
  GI50: > 10 µM (inactive)

## Nc1nc(Cl)c(N)c(NC23CC4CC(CC(C4)C2)C3)n1
CCRF-CEM
  GI50: 1.62 µM (inactive)
HT-29
  GI50: 1.79 µM (inactive)
K562
  GI50: 2.08 µM (inactive)
MOLT-4
  GI50: 2.39 µM (inactive)
MDA-MB-231
  GI50: 1.79 µM (inactive)
COLO 205
  GI50: 1.58 µM (inactive)
HOP-92
  GI50: 3.89 µM (inactive)
NCI-H226
  GI50: 1.92 µM (inactive)
BT-549
  GI50: 2.25 µM (inactive)
OVCAR-4
  GI50: 1.85 µM (inactive)
HCT-116
  GI50: 1.58 µM (inactive)
NCI/ADR-RES
  GI50: 2.43 µM (inactive)
SNB-75
  GI50: 2.1 µM (inactive)
SR
  GI50: 2.56 µM (inactive)
UO-31
  GI50: 1.69 µM (inactive)
RPMI-8226
  GI50: 2.25 µM (inactive)
OVCAR-3
  GI50: 1.64 µM (inactive)
SK-MEL-2
  GI50: 0.147 µM (active)
SNB-19
  GI50: 1.63 µM (inactive)
HCT-15
  GI50: 1.73 µM
PC-3
  GI50: 1.36 µM (inactive)
CAKI-1
  GI50: 1.93 µM (inactive)
NCI-H522
  GI50: 1.92 µM (inactive)
SF-268
  GI50: 2.57 µM (inactive)
SF-295
  GI50: 2.78 µM (inactive)
MCF7
  GI50: 1.68 µM (inactive)
DU-145
  GI50: 2.22 µM (inactive)
OVCAR-8
  GI50: 2.55 µM (inactive)
HCC 2998
  GI50: 2.25 µM (inactive)
NCI-H460
  GI50: 3.07 µM (inactive)
LOX IMVI
  GI50: 3.87 µM (inactive)
786-0
  GI50: 1.67 µM (inactive)
SF-539
  GI50: 2.16 µM (inactive)
KM12
  GI50: 1.73 µM (inactive)
T47D
  GI50: 1.34 µM (inactive)
NCI-H23
  GI50: 2.23 µM (inactive)
HOP-62
  GI50: 1.87 µM (inactive)
SK-OV-3
  GI50: 4.32 µM (inactive)
IGROV-1
  GI50: 3.85 µM (inactive)
Hs-578T
  GI50: 4.4 µM (inactive)
SK-MEL-28
  GI50: 1.84 µM (inactive)
UACC-257
  GI50: 2.36 µM (inactive)
EKVX
  GI50: 2.18 µM (inactive)
ACHN
  GI50: 1.78 µM (inactive)
MDA-N
  GI50: 1.58 µM (inactive)
A498
  GI50: 2.88 µM (inactive)
SN12C
  GI50: 1.82 µM (inactive)
RXF 393
  GI50: 1.61 µM (inactive)
MDA-MB-435
  GI50: 1.41 µM (inactive)
Malme-3M
  GI50: 3.16 µM (inactive)
SK-MEL-5
  GI50: 1.72 µM (inactive)
M14
  GI50: 1.36 µM (inactive)
UACC-62
  GI50: 1.63 µM (inactive)
TK-10
  GI50: 2.38 µM (inactive)
A549
  GI50: 2.13 µM (inactive)
U-251
  GI50: 1.66 µM (inactive)
SW-620
  GI50: 1.51 µM (inactive)
OVCAR-5
  GI50: 1.4 µM (inactive)
